This note sets out measurements from US5834452A, “1- or 6-hydroxylated steroids” (Roussel Uclaf, priority 1996, dated 1998).

Molecules are shown by their SMILES.

Assay [1] has as its system endometrial proliferation (uterine lace). Description: Progestomimetic activity: endometrial transformation in the rabbit (Clauberg-McPhail test). The settings on record: for Average uterine lace (McPhail Index): day 8 to day 11. Further details: key to Maximal activity on the uterine lace (McPhail index) / Average uterine lace (McPhail Index): McPhail scale 0–4 with 0.5 steps (endometrial proliferation). In kind it is in vivo. As for the experimental part: 2. --Determination of the progestomimetic activity of the products of the invention: Endometrial transformation in the rabbit. The animals used were impuberal female rabbits which were 40-45 days old. The animals were treated with estradiol (5 ug/0.2 ml/rabbit in solution of corn oil, 10% ethanol) by subcutaneous route from day 1 to day 5, then the product to be studied was administered from day 8 to day 11. On day 12, the animals were sacrificed and a median portion of each uterine cornua was removed from each animal and fixed in Bouin's liquid for histological study. After fixing, the samples were dehydrated, included, cut, mounted, the paraffin was removed and then the sample was stained with hemalum-eosin-saffron. […] Then, for each of the cornua, a semi-quantitative evaluation of the endometrial proliferation (uterine lace) was carried out by the McPhail scale from 0 to 4 with 0.5 intermediates and the two figures were averaged. Similarly, the degree of hypertrophy of the cornua was evaluated by the same scale. At higher magnification, morphological observations of the mucous membrane or the myometrium could possibly be formulated. The 1-OH metabolite (product A) was tested at doses of 10, 100, 1000 μg/kg by subcutaneous route as well as orally at a dose of 1000 μg/kg. The 6-OH metabolite (product B) was tested at doses of 100, 1000 and 10000 μg/kg subcutaneously. As a control, progesterone was administered at doses of 100 and 1000 μg/kg by subcutaneous route. The averages were produced for the uterine lace (McPhail Index).

Assay [2] concerns the target T1, Human progesterone receptor (HPR) (Homo sapiens, UniProt P06401).
T1 construct: made in house; host or cells: SF9 insect cells (ATCC CRL1711), baculovirus, lysate supernatant
T1 sequence (P06401 1-933): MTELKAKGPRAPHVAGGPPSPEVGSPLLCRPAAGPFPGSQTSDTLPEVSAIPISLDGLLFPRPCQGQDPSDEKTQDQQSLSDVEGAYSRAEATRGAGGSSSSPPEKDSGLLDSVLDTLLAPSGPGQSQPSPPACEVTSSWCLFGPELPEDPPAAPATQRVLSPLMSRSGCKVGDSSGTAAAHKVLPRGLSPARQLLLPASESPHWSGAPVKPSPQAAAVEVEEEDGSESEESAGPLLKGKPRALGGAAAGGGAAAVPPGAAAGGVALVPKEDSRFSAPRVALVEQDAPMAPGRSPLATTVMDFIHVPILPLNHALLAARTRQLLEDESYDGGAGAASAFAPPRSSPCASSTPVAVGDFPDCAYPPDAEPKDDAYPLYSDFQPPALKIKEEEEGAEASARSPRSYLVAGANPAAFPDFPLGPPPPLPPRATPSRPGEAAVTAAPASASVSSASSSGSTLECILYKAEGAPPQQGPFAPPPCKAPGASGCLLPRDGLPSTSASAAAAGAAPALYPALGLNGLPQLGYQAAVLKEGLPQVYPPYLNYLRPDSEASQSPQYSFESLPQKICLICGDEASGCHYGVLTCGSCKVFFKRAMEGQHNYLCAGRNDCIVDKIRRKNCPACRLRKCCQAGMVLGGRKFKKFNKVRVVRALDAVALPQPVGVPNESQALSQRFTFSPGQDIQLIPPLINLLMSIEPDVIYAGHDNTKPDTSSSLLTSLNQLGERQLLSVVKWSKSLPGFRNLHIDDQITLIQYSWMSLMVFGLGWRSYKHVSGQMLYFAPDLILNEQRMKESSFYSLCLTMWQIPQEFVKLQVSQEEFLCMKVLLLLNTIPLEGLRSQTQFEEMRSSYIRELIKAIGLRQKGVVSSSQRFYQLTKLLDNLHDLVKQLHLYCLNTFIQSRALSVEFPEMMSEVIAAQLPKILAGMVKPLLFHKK
Description: Relative bond affinity (RBA), recombinant human progestogen receptor, charcoal dextran technique. The format is binding. The note with it: relative to Trimegestone. From the text: The human recombinant receptor (HGR, HPR, HAR, HMR, HER) was used.
Human progesterone receptor (HPR):
The recombinant human progestogen receptor was obtained by the superexpression in a cell system of insects--Baculovirus, according to the methodology described by Webb et al (Journal of Methods in Cell and Molecular Biology, (1990) Vol. 2 No. 4, p. 173-188) and the application of which was described for the expression of human hormonal receptors, for example the human glucocorticoid receptor (Srinivasan et al, Molecular Endocrinology, (1990) Vol. 4 No. 2, p. 209-216.
The BaculoGold Transfection Kit (PharMingen, reference 21000K) was used to insert the cDNA fragment described by Kastner et al (The EMBO Journal, (1990), Vol. 9 No. 5, p. 1603-1614), containing the region coding for the human progestogen receptor and to prepare the corresponding recombinant virus. The recombinant virus obtained in this way was used to express the progestogen receptor in SF9 insect cells (ATCC CRL1711), according to the known methodology cited previously.
2×10^7 to 2.5×10^7 SF9 cells were cultured in a 175 ml "Falcon" flask in the TNM-FH medium supplemented with 10% fetal calf serum (FCS) and with 50 micrograms/ml of gentamycin. After infection, then incubation at 27° C. for 40 to 42 hours, the cells were taken up in 1 ml of lysis buffer (1), lysed by 2 cycles of freezing-thawing (-80° C./ 0° C.), then centrifuged at 4° C. for 30 minutes at 20,900 g. The supernatant, containing the recombinant human progestogen receptor, was stored in liquid nitrogen in quantities of 1 ml.
The supernatant was diluted at the time of use with 10 mM Tris buffer, 0.25M saccharose, HCl pH 7.4 containing 0.1% of gelatin and then incubated at 0° C. for 24 hours with a constant concentration (T) of tritiated 17α, 21-dimethyl-19-nor-Δ^4,9 pregnadiene-3,20-dione in the presence of increasing concentrations of either unlabelled progesterone (0-2500×10^-9 M), or the unlabelled product to be tested (1 to 25000×10^-9 M). The concentration of bound tritiated 17,21-dimethyl-19-nor-Δ^4,9 -pregnadiene-3,20-dione (B) was then measured in each incubate using the charcoal dextran adsorption technique.
Calculation of the relative bond affinity (RBA).
The following two curves were drawn: the percentage of bound tritiated hormone B/BO as a function of the logarithm of the concentration of unlabelled reference hormone or as a function of the logarithm of the concentration of unlabelled test product. The straight line of the following equation was determined: […]
The relative bond affinity (RBA) of the test product was determined by the equation: […]

Turning to `C[C@H](O)C(=O)[C@@]1(C)CC[C@H]2[C@@H]3CCC4=CC(=O)C[C@H](O)C4=C3CC[C@@]21C` [Product A, [1α, 17β-(S)]-1-hydroxy-17-(2-hydroxy-1-oxopropyl)-17-methyl-Δ^4,9-estradiene-3-one], the “Average uterine lace (McPhail Index)” value is 3,8 in assay [1] (rabbit, 0,01 mg/kg, s/c); 3,8 in assay [1] (rabbit, 0,1 mg/kg, s/c); 4 in assay [1] (rabbit, 1 mg/kg, per os); 3,8 in assay [1] (rabbit, 1 mg/kg, s/c, 1 mg/kg). Besides, the “Hypertrophy of the cornua” value in assay [1] (rabbit, 1 mg/kg p/o route versus s/c route) is reported as “stronger hypertrophy of the cornua”. Moreover, the “RBA for the human progestogen receptor, times weaker than that of Trimegestone” value in assay [2] is on record as 9 times.
`CC(=O)[C@H]1CC[C@H]2[C@@H]3CCC4=CC(=O)CC[C@]4(C)[C@H]3CC[C@]12C` [Progesterone, reference compound]: the “Average uterine lace (McPhail Index)” value is reported as 1,8 in assay [1] (rabbit, 0,1 mg/kg, s/c) and 3,8 in assay [1] (rabbit, 1 mg/kg, s/c). In addition, the “Maximal activity on the uterine lace (McPhail index)” value in assay [1] (rabbit, 1000 μg/kg by subcutaneous route (note)) is given as 4.
